Tested on: NCI-H441 cells
Experiment: Internalization by flow cytometry in NCI-H441 cells
Assay type: cell-based, human
Conditions: antibody 10 nM
Description: Briefly, antibodies were fluorescently labeled by coupling to a Fab fragment AF488 conjugate targeting anti-Human IgG Fe (Jackson Immuno Research Labs, West Grove, PA; Cat. No. 109-547-008) at a 1:1 molar ratio in PBS pH 7.4 (Thermo Fisher Scientific, Waltham, MA; Cat. No. 10010-023), for 24 hours at 4° C. Cells were seeded at 50,000 cells/well in RPMI 1640, ATCC modification (Thermo Fisher Scientific, Waltham, MA) supplemented with 10% fetal bovine serum (Thermo Fisher Scientific, Waltham, MA) in 48-well plates and incubated overnight under standard culturing conditions (37° C./5% CO2) to allow attachment. […] Following incubation, cells were dissociated, washed, and surface AF488 fluorescence was quenched using an anti-AF488 antibody (Life Technologies, Carlsbad, CA; Cat. No. A-11094) at 100 nM for 30 minutes at 4° C. […] (internalized fluorescence) was detected by flow cytometry on a BD LSRFortessa™ Cell Analyzer (BD Biosciences, Franklin Lake, NJ) with 1,000 minimum events collected per well. The AF488/FITC-A GeoMean (fluorescence signal geometric mean, proportional to anti-Human Fab AF488 labelling) was calculated for the live single cell population using FlowJo™ Version 10.8.1 (BD Biosciences, Franklin Lake, NJ) and plotted using GraphPad Prism Version 9 (GraphPad Software, San Diego, CA).

## v22277: anti-RSV antibody palivizumab, negative control; has a heterodimeric Fc [reference compound]
NCI-H441, 5 hrs
  Internalized Fluorescence Fold-Over Palivizumab: 1.0 fold
NCI-H441, 24 hrs
  Internalized Fluorescence Fold-Over Palivizumab: 1.0 fold
